According to patent publication US20220332750A1, “ADENOSINE COMPOUND, ITS PHARMACEUTICALLY ACCEPTABLE SALT OR ITS STEREOISOMER AND USE THEREOF” (ACADEMY OF MILITARY MEDICAL SCIENCES, priority 2019, published 2022):
pEC50, pIC50, pKi: −log10 of the molar value.

Tests used:
[1] = biological target: T1, (human) A2A adenosine receptor (Homo sapiens, UniProt P29274); assay: Radioligand binding test ([3H]-CGS21680 displacement); conditions: for pKi: calculated from IC50 by Cheng-Prusoff equation, [S] 25 nM, Km 22 nM; for pIC50: hA2A HEK-293 cell membrane, [3H]-CGS21680 25 nM, 25° C. 90 minutes
T1 construct: purchased PerkinElmer Research Products (Boston, Mass.); host or cells: HEK-293 cell membranes, stably transfected
T1 sequence (P29274 whole entry): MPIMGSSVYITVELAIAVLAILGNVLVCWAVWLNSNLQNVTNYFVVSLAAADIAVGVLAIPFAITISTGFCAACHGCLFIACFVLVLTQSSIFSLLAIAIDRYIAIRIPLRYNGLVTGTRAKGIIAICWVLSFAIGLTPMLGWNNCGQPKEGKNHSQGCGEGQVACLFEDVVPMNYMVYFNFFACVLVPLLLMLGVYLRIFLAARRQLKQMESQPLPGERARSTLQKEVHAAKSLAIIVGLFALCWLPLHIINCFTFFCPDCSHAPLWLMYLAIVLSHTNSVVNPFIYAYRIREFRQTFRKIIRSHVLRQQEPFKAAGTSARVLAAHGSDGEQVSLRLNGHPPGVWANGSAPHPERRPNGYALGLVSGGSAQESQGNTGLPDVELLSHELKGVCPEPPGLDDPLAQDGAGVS
Method: [3H]-CGS21680 (2-[p-(2-carboxyethyl)phenylethylamino]-5′-N-ethylcarboxamido-adenosine, [carboxy-1-ethyl-3H(N)]—; 250 μCi): purchased from PerkinElmer Research Products (Boston, Mass.);
The cell membrane stably transfected with (human) A2A adenosine receptor was prepared in HEK-293 cells, and the cell membrane was obtained from PerkinElmer Research Products (Boston, Mass.);
CGS 21680 (2-[p-(2-carboxyethyl)phenylethylamino]-5′-N-ethylcarboxamidoadenosine) was purchased from Selleck (Shanghai, CN);
The A2A adenosine receptors used were all expressed in the cell membrane. Each compound was continuously diluted 3 times with DMSO (Solarbio, D8371-250 ml) to generate compound source plates with 10 different concentrations (10 μM, 3.3 μM, 1.1 μM, 0.37 μM, 0.12 μM, 0.0412 μM, 0.0137 μM, 0.0046 μM, 0.0015 μM, 0.0005 μM), 250 nL of compounds were added to 384-well Opti-plate, sealed with parafilm; 1 mL of assay buffer (containing 50 mM Tris-HCl, pH 7.4, 10 mM MgCl2, 1 mM EDTA, 1 μg/mL adenosine deaminase) was added to 20 U hA2A HEK-293 cell membrane for dilution, 0.75 μCi [3H]-CGS21680 (final 25 nM) was added to the diluted cell membrane and mixed well; 50 μL of the prepared cell membrane dilution was transferred to the 384-well Opti-plate containing fresh compounds and incubated at 25° C. for 90 minutes; 100 μL of 0.5% polyethyleneimine solution (PEI) was added to UNIFILTER-96 GF/B filter plate, and soaked at 4° C. for 90 minutes, then the UNIFILTER-96 GF/B filter plate was washed twice with 500 μL of washing buffer per well (washing buffer contained 50 mM Tris-HCl pH 7.4, 154 mM NaCl) which was transferred by Cell Harvester; then, the mixture system in the Opti-plate was transferred to the cleaned UNIFILTER-96 GF/B filter plate, and then the UNIFILTER-96 GF/B filter plate was washed 9 times with 500 μL of washing buffer per well (washing buffer contained 50 mM Tris-HCl, pH 7.4, 154 mM NaCl), and incubated for 3 minutes in a 37° C. incubator; 40 μL of ULTIMA GOLD scintillation fluid (Perkin Elmer, Cat #77-16061) was added to each well, MicroBeta liquid scintillation counter (PerkinElmer) was used to read CPM (count per minute) value. The specific binding percentage of [3H]CGS21680 was calculated according to the CPM value, % specific binding of [3H]CGS21680=(CPMsample−CPMLow Control)/(CPMHigh Control−CPMLow Control)*100, wherein High Control was 0.5% DMSO, Low Control was 100 μM CGS21680. According to the compound concentration and the specific binding percentage of [3H]CGS21680, curve fitting was performed to calculate IC50 value.
The binding inhibition constant (Ki) value was calculated from the IC50 value according to the Cheng-Prusoff equation, Ki=IC50/(1+[S]/Km), wherein [S] was radioligand concentration (25 nM), and Km was human A2AAR dissociation constant of [3H]CGS21680 (22 nM).

[2] = biological target: human adenosine receptor A2A (hADORA2A-HEK293 cells) (Homo sapiens, UniProt P29274); assay: cAMP test of A2A adenosine receptor; format: cell-based; conditions: LANCE Ultra cAMP kit
Chain of human adenosine receptor A2A (hADORA2A-HEK293 cells) (P29274 whole entry): as above
From the text: DMEM/F12, G418, Penicillin-Streptomycin, Versene solution, HEPES, Hank's buffer saline aqueous solution, PBS (pH 7.4, 1×, sterile), FBS, 7.5% BSA stabilizer, Rolipram, NECA, were purchased from Gibico, Hyclone and Sigma, respectively;
LANCE® Ultra cAMP kit (containing Eu-cAMP tracer, Ulight-anti-cAMP reagent, cAMP detection buffer) and hADORA2A-HEK293 cells were purchased from PerkinElmer Research Products (Boston, Mass.);
The cells stably expressing human adenosine receptor A2A (hADORA2A-HEK293 cells) were cultured in DMEM/F12 medium containing 10% FBS, 1× Penicillin-Streptomycin and 400 μg/ml G418 in the environment of 37° C. and 5% CO2. Before the experiment, the cells were digested with Versene solution. […] EnVison microplate reader (EnVision multimode plate reader, PerkinElmer) was used to determine the level of cyclic adenosine monophosphate in the final solution (λex=320 nm, λem=665 nm & 615 nm). The EC50 (nM) value that stimulated the production level of cyclic adenosine monophosphate when the test compound interacted with the A2A adenosine receptor was calculated. The A2A receptor agonist titer of the compound was expressed as the EC50 (nM) value that stimulated the production level of cyclic adenosine monophosphate when the compound interacted with the A2A adenosine receptor. […]

Structure (SMILES) | melting point | pKi [1] | pIC50 [1] | pEC50 [2]
Nc1nc(-c2ccc(NC(=O)Nc3cccnc3)cc2)nc2c1ncn2[C@@H]1O[C@H](CO)[C@@H](O)[C@H]1O [Compound 1, 1-{4-{6-amino-9-[(2R,3R,4S,5R)-3,4-dihydroxy-5-(hydroxymethyl)tetrahydrofuran-2-yl]-9H-purin-2-yl}phenyl}-3-(pyridin-3-yl)urea] | 230 °C | 6.11 | 5.78 | 
Nc1nc(-c2ccc(NC(=O)Nc3ccc(CO)cc3)cc2)nc2c1ncn2[C@@H]1O[C@H](CO)[C@@H](O)[C@H]1O [Compound 2, 1-{4-{6-amino-9-[(2R,3R,4S,5R)-3,4-dihydroxy-5-(hydroxymethyl)tetrahydrofuran-2-yl]-9H-purin-2-yl}phenyl}-3-[4-(hydroxymethyl)phenyl]urea] | 174 °C | 7.79 | 7.46 | 6.64
Nc1nc(-c2ccc(NC(=O)NC3CC3)cc2)nc2c1ncn2[C@@H]1O[C@H](CO)[C@@H](O)[C@H]1O [Compound 3, 1-{4-{6-amino-9-[(2R,3R,4S,5R)-3,4-dihydroxy-5-(hydroxymethyl)tetrahydrofuran-2-yl]-9H-purin-2-yl}phenyl}-3-cyclopropylurea] | 174 °C | 7.80 | 7.47 | 
